Strand notation (5' to 3'): a small letter for the sugar, then the base; units joined by * are phosphorothioate-linked, units joined directly phosphodiester-linked; [ ] holds rarer units or linkages, { } end groups; capitals alone tell only the bases. k = constrained ethyl (cEt); [5mC] = 5-methylcytosine; d = 2'-deoxy (DNA)
System: human SMAD7 mRNA
Assay: Antisense inhibition of human SMAD7 mRNA expression in Hep3B cells by 3-10-3 cEt gapmers, 10,000 nM, electroporation (Example 2)
Type: cell-based
Settings: Hep3B cells, 10,000 nM antisense oligonucleotide, electroporation, approximately 24 hours, RT-PCR primer probe set RTS5062, relative to untreated control cells
Method in brief: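 qRT-PCR (RTS5062) of SMAD7 mRNA, normalised to RIBOGREEN total RNA, gave percent inhibition relative to untreated controls. Hep3B cells at 20,000 per well received 10,000 nM oligonucleotide by electroporation, with ~24 h treatment.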

Row | Substance | % Inhibition [%]
1 | 799933 (antisense kT*kA*k[5mC]*dT*dA*dT*dT*d[5mC]*dA*dT*d[5mC]*dA*d[5mC]*k[5mC]*k[5mC]*kT) [compound 799933] | 22
2 | 799873 (kA*kA*kA*dA*dG*dT*dT*dA*dA*dT*d[5mC]*dA*dT*kT*kA*k[5mC]; antisense) [compound 799873] | 0
3 | 790533 (kG*kG*k[5mC]*dT*dA*d[5mC]*d[5mC]*dG*dG*d[5mC]*dT*dG*dT*kT*kG*kA; antisense) [compound 790533] | 16

Same assay, conditions: Hep3B cells, electroporation with 10,000 nM antisense oligonucleotide, approximately 24 hours, RTS5062, percent inhibition of SMAD7 mRNA relative to untreated control cells

Row | Substance | % Inhibition [%]
4 | 799293 (antisense k[5mC]*k[5mC]*kT*dT*dG*dA*dT*dG*d[5mC]*dT*dG*dA*dT*kT*kA*kT) [compound 799293] | 5
5 | 799821 (antisense k[5mC]*k[5mC]*k[5mC]*d[5mC]*dA*dG*dA*dA*dA*dA*d[5mC]*dA*dG*k[5mC]*k[5mC]*k[5mC]) [compound 799821] | 17
6 | 799844 (antisense kA*kG*kA*dG*dG*dA*dG*dG*dA*dG*dG*d[5mC]*dA*kA*kA*kT) [compound 799844] | 11
7 | 799728 (antisense k[5mC]*kG*kG*dA*dG*dA*dG*dG*dA*dA*dG*d[5mC]*d[5mC]*kT*k[5mC]*kT) [compound 799728] | 37
8 | 799588 (kA*kA*kA*dA*dA*dG*d[5mC]*d[5mC]*d[5mC]*dA*d[5mC]*d[5mC]*d[5mC]*kA*kT*k[5mC]; antisense) [compound 799588] | 44
9 | 799625 (kA*kA*kT*dG*dA*dA*dA*dG*dT*dA*d[5mC]*dA*dA*kT*k[5mC]*kT; antisense) [compound 799625] | 31

Same assay, conditions: Hep3B cells, electroporation with 10,000 nM antisense oligonucleotide, approximately 24 hours, SMAD7 mRNA by RT-PCR (RTS5062), relative to untreated control cells

Row | Substance | % Inhibition [%]
10 | 830199 (antisense kA*kA*kG*dG*d[5mC]*dT*dA*d[5mC]*dA*d[5mC]*d[5mC]*dA*dA*kA*kG*kA) [compound 830199] | 37
11 | 830200 (antisense kG*kA*kA*dG*dG*d[5mC]*dT*dA*d[5mC]*dA*d[5mC]*d[5mC]*dA*kA*kA*kG) [compound 830200] | 33
12 | 800061 (antisense k[5mC]*k[5mC]*k[5mC]*dA*dA*dA*dT*dG*d[5mC]*d[5mC]*dT*dG*d[5mC]*k[5mC]*k[5mC]*k[5mC]) [compound 800061] | 44
13 | 798816 (k[5mC]*k[5mC]*kA*d[5mC]*dG*d[5mC]*dA*d[5mC]*d[5mC]*dA*dG*dT*dG*kT*kG*kA; antisense) [compound 798816] | 24
14 | 799447 (antisense kA*kT*kG*dA*dA*dT*dG*dA*d[5mC]*d[5mC]*dT*dA*dA*kT*k[5mC]*kT) [compound 799447] | 30
15 | 799510 (antisense kG*kA*kG*dA*dA*dA*d[5mC]*dA*dG*dT*d[5mC]*dT*d[5mC]*k[5mC]*kA*k[5mC]) [compound 799510] | 57
16 | 830155 (antisense kT*kG*kT*dG*d[5mC]*d[5mC]*dT*d[5mC]*dA*dG*d[5mC]*dA*dG*kT*kT*kA) [compound 830155] | 38
17 | 830017 (antisense kA*kG*kG*d[5mC]*dG*dG*dA*dA*dG*dG*dA*d[5mC]*dT*kT*kG*k[5mC]) [compound 830017] | 30
18 | 799905 (antisense kA*kG*kT*d[5mC]*dG*dA*dA*dT*d[5mC]*dA*dT*dT*dT*k[5mC]*kT*k[5mC]) [compound 799905] | 53
19 | 799388 (antisense kT*kT*kG*d[5mC]*dA*dG*dA*dA*dT*dT*d[5mC]*d[5mC]*dA*kG*kG*kA) [compound 799388] | 41
20 | 798767 (kT*k[5mC]*k[5mC]*dG*dG*d[5mC]*d[5mC]*dA*d[5mC]*d[5mC]*dT*dG*dA*kA*k[5mC]*kA; antisense) [compound 798767] | 0
21 | 799387 (antisense k[5mC]*k[5mC]*kA*dG*dG*dA*dG*d[5mC]*dT*dA*dA*dA*dT*kG*kG*kT) [compound 799387] | 22
22 | 830111 (k[5mC]*k[5mC]*k[5mC]*dA*dT*dT*d[5mC]*dA*dT*dT*dA*dA*dG*k[5mC]*k[5mC]*k[5mC]; antisense) [compound 830111] | 38
23 | 798811 (k[5mC]*kA*kG*dA*dA*dG*dA*dA*dG*dT*dT*dG*dG*kG*kA*kA; antisense) [compound 798811] | 1
24 | 799432 (antisense kT*kG*kA*d[5mC]*dA*dG*d[5mC]*d[5mC]*dA*d[5mC]*dA*dA*dG*kT*k[5mC]*kA) [compound 799432] | 7
25 | 830086 (kT*kT*kT*dA*d[5mC]*dA*dG*dG*dA*dT*dA*d[5mC]*dA*k[5mC]*kT*kT; antisense) [compound 830086] | 40
26 | 830020 (antisense kG*kA*kA*dA*dG*dG*d[5mC]*d[5mC]*d[5mC]*dA*dA*d[5mC]*dA*kG*k[5mC]*k[5mC]) [compound 830020] | 23

Same assay, conditions: Hep3B cells, electroporation with 10,000 nM antisense oligonucleotide, approximately 24 hours, primer probe set RTS5062, relative to untreated control cells

Row | Substance | % Inhibition [%] | % inhibition of SMAD7 mRNA expression [%]
27 | 798980 (antisense kA*k[5mC]*kA*d[5mC]*dT*dG*dT*dG*dT*dT*dT*dG*dG*kT*kG*kG) [compound 798980] | 50 | 
28 | 799157 (antisense kG*kT*kT*dG*dT*dA*dG*dA*dA*dG*dA*dA*dA*kT*kG*kA) [compound 799157] | 39 | 
29 | 799132 (antisense kA*kA*kG*d[5mC]*dA*dT*dG*dT*d[5mC]*d[5mC]*d[5mC]*dT*d[5mC]*k[5mC]*k[5mC]*kA) [compound 799132] |  | 38
30 | 799185 (antisense kT*kT*kA*dA*dA*d[5mC]*d[5mC]*dT*dT*dT*dG*dT*dA*kG*kT*kT) [compound 799185] |  | 0
31 | 799444 (antisense k[5mC]*kA*kT*d[5mC]*dA*dT*dG*d[5mC]*dT*dG*dA*dT*dT*kT*kT*kA) [compound 799444] |  | 45
32 | 799171 (antisense kT*kG*k[5mC]*dT*d[5mC]*dA*dT*dT*dG*dA*dG*d[5mC]*dT*kA*kA*kG) [compound 799171] |  | 30
33 | 799223 (kA*kT*k[5mC]*dT*dT*dG*dT*dG*dT*dT*dT*dA*dT*k[5mC]*kT*kT; antisense) [compound 799223] | 0 | 
34 | 799226 (kA*kA*kA*dA*d[5mC]*dA*d[5mC]*d[5mC]*dA*dA*dT*d[5mC]*dT*kT*kG*kT; antisense) [compound 799226] | 15 | 
35 | 799115 (antisense kA*k[5mC]*kA*d[5mC]*dA*dG*dG*dA*dT*dG*dG*dG*dA*kG*k[5mC]*kA) [compound 799115] | 40 | 
36 | 798759 (kG*kG*k[5mC]*dG*dG*d[5mC]*dT*dG*d[5mC]*dG*d[5mC]*dA*dG*kG*k[5mC]*kT; antisense) [compound 798759] |  | 40
37 | 798723 (antisense k[5mC]*kG*k[5mC]*d[5mC]*dT*dT*dG*d[5mC]*d[5mC]*d[5mC]*dA*dG*dG*k[5mC]*kA*kG) [compound 798723] |  | 0
38 | 799041 (kG*kG*k[5mC]*dA*dG*d[5mC]*dT*dG*d[5mC]*dT*dG*dG*dG*kA*k[5mC]*k[5mC]; antisense) [compound 799041] | 22 | 
39 | 799060 (antisense kG*k[5mC]*k[5mC]*dA*d[5mC]*dT*dA*dG*d[5mC]*dA*dG*dG*d[5mC]*kT*k[5mC]*kG) [compound 799060] | 37 | 
40 | 798789 (kG*kT*kA*dT*d[5mC]*dT*dG*dG*dA*dG*dT*dA*dA*kG*kG*kA; antisense) [compound 798789] |  | 44
41 | 799229 (kA*kA*k[5mC]*dA*d[5mC]*d[5mC]*d[5mC]*dA*dT*dA*dG*dA*dA*kA*kA*kA; antisense) [compound 799229] |  | 22

Same assay, conditions: Hep3B cells, electroporation, 10,000 nM antisense oligonucleotide, approximately 24 hours, RTS5062, relative to untreated control cells

Row | Substance | % inhibition of SMAD7 mRNA expression [%]
42 | 799672 (antisense kA*k[5mC]*kA*dG*dG*dA*dT*dG*dG*dA*dG*d[5mC]*dA*kA*kT*kG) [compound 799672] | 41
43 | 799680 (antisense kG*kA*kG*dT*dT*d[5mC]*dT*dA*dG*dG*d[5mC]*d[5mC]*dG*kT*k[5mC]*kA) [compound 799680] | 33
44 | 799778 (kG*k[5mC]*kA*d[5mC]*dA*d[5mC]*d[5mC]*dT*dT*d[5mC]*d[5mC]*dA*dA*kG*k[5mC]*kA; antisense) [compound 799778] | 10
45 | 799542 (kG*kT*kT*dA*dA*dT*dG*dA*d[5mC]*dA*d[5mC]*d[5mC]*dA*kA*kA*kG; antisense) [compound 799542] | 30

Same assay, conditions: Hep3B cells, electroporation, 10,000 nM, approximately 24 hours; 3-10-3 cEt gapmers targeting SEQ ID NO: 3 and 4

Row | Substance | % inhibition of SMAD7 mRNA expression [%]
46 | 790634 (kA*kG*kT*d[5mC]*dA*dG*dT*dT*dG*dG*dT*dT*dT*kG*kA*kG; antisense) [compound 790634] | 0

Same assay, conditions: SMAD7 mRNA, Hep3B cells, 10,000 nM antisense oligonucleotide, electroporation, approximately 24 hours, primer probe set RTS5062, relative to untreated control cells

Row | Substance | % Inhibition [%]
47 | 829727 (antisense kG*k[5mC]*kT*d[5mC]*d[5mC]*dG*dT*dG*dG*d[5mC]*dA*dT*dG*k[5mC]*kG*k[5mC]) [compound 829727] | 35

Same assay, conditions: SMAD7 mRNA, Hep3B cells, electroporation with 10,000 nM antisense oligonucleotide, approximately 24 hours, primer probe set RTS5062, relative to untreated control cells

Row | Substance | % Inhibition [%]
48 | 829912 (antisense kA*kA*k[5mC]*dG*dA*d[5mC]*d[5mC]*dA*dA*dA*dG*dA*dG*kT*kT*kT) [compound 829912] | 24
49 | 829997 (kG*kT*kT*dT*dG*dT*d[5mC]*dT*dT*dA*dG*d[5mC]*dT*kG*kT*kG; antisense) [compound 829997] | 21
50 | 829884 (antisense kT*kG*k[5mC]*dA*dG*dG*d[5mC]*dT*dG*dT*dA*d[5mC]*dG*k[5mC]*k[5mC]*kT) [compound 829884] | 24

Source: patent US10517889B2, “Modulators of SMAD7 expression” (Ionis Pharmaceuticals, Inc., priority 2017, dated 2019)
